{
  "source": "paper PMC7004565",
  "about": "“Nucleotide inhibition of the pancreatic ATP-sensitive K^+ channel explored with patch-clamp fluorometry” (eLife, 2020)",
  "key": {"[1]": {"biological_target": "T1, Kir6.2-GFP (no SUR1) (Homo sapiens, UniProt Q14654)", "T1 construct": "ANAP labelling is specific and only full-length Kir6.2 is expressed at the cell membrane; expressed in transfected cells; host or cells: HEK-293T", "T1 sequence (Q14654 1-390)": "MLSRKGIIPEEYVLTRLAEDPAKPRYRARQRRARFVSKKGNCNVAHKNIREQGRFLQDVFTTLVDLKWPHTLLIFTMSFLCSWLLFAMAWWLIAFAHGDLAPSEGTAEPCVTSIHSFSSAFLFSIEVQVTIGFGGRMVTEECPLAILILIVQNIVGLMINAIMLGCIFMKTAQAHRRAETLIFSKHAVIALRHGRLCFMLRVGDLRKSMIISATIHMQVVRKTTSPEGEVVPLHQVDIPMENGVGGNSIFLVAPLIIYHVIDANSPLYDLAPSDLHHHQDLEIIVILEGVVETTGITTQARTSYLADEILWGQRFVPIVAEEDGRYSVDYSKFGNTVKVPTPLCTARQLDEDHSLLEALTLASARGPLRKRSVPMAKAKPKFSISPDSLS", "experiment": "FRET (ANAP quenching) nucleotide binding in unroofed membranes", "text": "To measure nucleotide binding, cells transfected with Kir6.2*-GFP + SUR1 were briefly sonicated, leaving behind unroofed plasma membrane fragments ([Heuser, 2000]; [Zagotta et al., 2016]; [Puljung et al., 2019]) containing ANAP-labelled KATP channels with the intracellular nucleotide-binding sites exposed to the bath solution. The sample was excited with a 385 nm LED and emitted fluorescence from the membrane fragments was passed through a spectrometer, allowing us to separate ANAP, GFP, and TNP-ATP fluorescence by peak wavelength (Figure 1E,F). As expected from FRET, increasing the concentration of TNP-ATP caused a decrement in the ANAP peak at 472 nm and a concomitant increase in the TNP-ATP peak at 561 nm (Figure 1F). We used the quenching of the ANAP peak as a direct measure of TNP-ATP binding as this signal was specific to KATP. In contrast, the peak TNP-ATP fluorescence may include contributions from both specific and non-specific nucleotide binding, as well as direct excitation of TNP-ATP in solution by the 385 nm excitation light. Due to the sharp cut-off of the GFP emission spectrum at shorter wavelengths, our measurements of peak ANAP fluorescence were unaffected by the presence of the GFP tag on Kir6.2.\nSUR1 plays a complex role in the regulation of Kir6.2. It increases the Popen of the channel and allows for the activation of the channel by Mg-nucleotides ([Nichols et al., 1996]; [Tucker et al., 1997]; [Babenko and Bryan, 2003]; [Chan, 2003]; [Fang et al., 2006]). However, it also increases the sensitivity of Kir6.2 to nucleotide inhibition ([Babenko and Bryan, 2003]; [Chan, 2003]; [Fang et al., 2006]). To understand the effect of SUR1 on nucleotide inhibition of KATP, we expressed Kir6.2*-GFP in the absence of SUR1 in unroofed membranes and measured TNP-ATP binding (Figure 4—figure supplement 1A). […] Unfortunately, we were unable to achieve high enough expression of Kir6.2*-GFP alone to carry out PCF experiments in the absence of SUR1. […]\nEpifluorescence imaging and spectroscopy were performed using a Nikon Eclipse TE2000-U microscope with a 60x water immersion objective (Plan Apo VC, NA = 1.2, Nikon; Kingston upon Thames, UK) or a 100x oil immersion objective (Nikon, Apo TIRF, NA = 1.49). […] Fluorescence spectra were collected by exciting ANAP as above but using a 400 nm long-pass emission filter (ThorLabs), then passing emitted light through an IsoPlane 160 Spectrometer (Princeton Instruments; Trenton, NJ) with a 300 grooves mm^-1 grating. […]\nUnroofed membranes were prepared as described previously ([Heuser, 2000]; [Zagotta et al., 2016]; [Puljung et al., 2019]). […] Unroofed membrane fragments were nearly invisible in bright-field images and identified by their GFP and ANAP fluorescence. […]"}, "[2]": {"biological_target": "Kir6.2-GFP + SUR1 (Homo sapiens, UniProt Q14654)", "sequence (Q09428 whole entry partner, one chain of several)": "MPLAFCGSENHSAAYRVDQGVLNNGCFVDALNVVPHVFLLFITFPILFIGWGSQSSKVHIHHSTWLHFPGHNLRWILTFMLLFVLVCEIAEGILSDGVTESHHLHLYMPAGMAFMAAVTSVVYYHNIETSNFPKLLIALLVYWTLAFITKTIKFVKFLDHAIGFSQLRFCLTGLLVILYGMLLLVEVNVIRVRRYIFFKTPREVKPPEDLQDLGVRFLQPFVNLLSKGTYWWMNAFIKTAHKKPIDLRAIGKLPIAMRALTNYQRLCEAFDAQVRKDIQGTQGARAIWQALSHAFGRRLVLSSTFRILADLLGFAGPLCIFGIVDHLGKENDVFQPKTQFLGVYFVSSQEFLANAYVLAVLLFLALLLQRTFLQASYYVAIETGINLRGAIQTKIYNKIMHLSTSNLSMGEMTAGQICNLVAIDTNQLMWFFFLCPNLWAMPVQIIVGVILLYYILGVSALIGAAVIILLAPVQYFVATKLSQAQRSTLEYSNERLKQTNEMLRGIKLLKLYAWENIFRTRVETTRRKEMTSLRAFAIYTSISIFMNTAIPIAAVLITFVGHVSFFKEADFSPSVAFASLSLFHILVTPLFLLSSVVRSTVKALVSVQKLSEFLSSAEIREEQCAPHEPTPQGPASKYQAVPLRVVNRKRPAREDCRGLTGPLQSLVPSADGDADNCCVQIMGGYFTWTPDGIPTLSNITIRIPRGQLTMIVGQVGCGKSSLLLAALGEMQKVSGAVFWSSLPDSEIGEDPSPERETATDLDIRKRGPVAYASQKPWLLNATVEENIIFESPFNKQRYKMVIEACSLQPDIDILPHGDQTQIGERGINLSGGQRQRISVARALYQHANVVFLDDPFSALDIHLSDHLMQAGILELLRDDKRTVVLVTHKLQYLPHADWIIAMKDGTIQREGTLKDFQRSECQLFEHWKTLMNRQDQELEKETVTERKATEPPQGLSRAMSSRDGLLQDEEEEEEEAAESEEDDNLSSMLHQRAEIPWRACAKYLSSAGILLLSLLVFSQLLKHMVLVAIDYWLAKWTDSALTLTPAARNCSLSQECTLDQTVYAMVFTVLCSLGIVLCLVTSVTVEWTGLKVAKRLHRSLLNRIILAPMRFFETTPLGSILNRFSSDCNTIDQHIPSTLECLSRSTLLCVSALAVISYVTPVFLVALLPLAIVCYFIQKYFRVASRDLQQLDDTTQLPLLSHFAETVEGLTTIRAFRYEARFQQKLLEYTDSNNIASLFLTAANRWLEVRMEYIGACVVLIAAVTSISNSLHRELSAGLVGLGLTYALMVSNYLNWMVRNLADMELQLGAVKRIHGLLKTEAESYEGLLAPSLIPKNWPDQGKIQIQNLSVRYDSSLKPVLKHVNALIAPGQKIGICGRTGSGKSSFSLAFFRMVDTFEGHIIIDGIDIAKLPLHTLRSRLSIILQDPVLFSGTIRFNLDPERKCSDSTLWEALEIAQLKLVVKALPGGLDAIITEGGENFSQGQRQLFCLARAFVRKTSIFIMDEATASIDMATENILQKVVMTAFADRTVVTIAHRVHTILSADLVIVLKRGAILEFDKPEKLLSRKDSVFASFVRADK", "experiment": "Current inhibition in excised inside-out patches (patch-clamp fluorometry)", "assay_type": "biochemical", "set-up": "full length, fully ANAP-labelled Kir6.2 protein was produced and successfully trafficked to the membrane in the presence of SUR1; expressed in transfected cells; host or cells: HEK-293T", "settings": "excised inside-out patches, Mg2+-free, Hill fit", "description": "Currents were measured from patches from cells expressing KATP that were excised in the absence of Mg^2+. Under such conditions, nucleotides can bind to both sites on SUR1, but no activation occurs, allowing inhibitory currents to be measured in isolation ([Gribble et al., 1998]; [Ueda et al., 1999]; [Puljung et al., 2019]).\nCurrents were measured as described above."}},
  "note": "pEC50, pIC50: −log10 of the molar value.",
  "data": [
    {"compound": "Nc1ncnc2c1ncn2[C@@H]1O[C@H](COP(=O)(O)OP(=O)(O)OP(=O)(O)O)[C@H]2OC3(O[C@H]21)C([N+](=O)[O-])=CC(=[N+]([O-])[O-])C=C3[N+](=O)[O-]", "note": "(stereo partly drawn) [TNP-ATP, trinitrophenyl-ATP]", "values": [
      {"measurement": "increase in apparent EC50 compared to the same construct in the presence of SUR1", "setting": "[1]", "value": "approximately 1.5 fold"},
      {"measurement": "h (Hill coefficient) fluorescence quenching", "setting": "[1]; no SUR1, Hill fit", "value": 0.83},
      {"measurement": "Emax", "setting": "[1]; no SUR1, Hill fit, fraction, read-out: Emax fluorescence quenching", "value": 92, "unit": "%"},
      {"measurement": "pEC50", "setting": "[1]; no SUR1, Hill fit, n = 14, read-out: EC50 fluorescence quenching", "value": 4.42},
      {"measurement": "pIC50", "setting": "[2]; IC50 current inhibition", "value": 5.21},
      {"measurement": "h (Hill coefficient) current inhibition", "setting": "[2]", "value": 0.92}
    ]}
  ]
}
